# Experimental data from patent publication US11286252B2, “Alkene spirocyclic compounds as farnesoid X receptor modulators” (BRISTOL-MYERS SQUIBB COMPANY, priority 2017, dated 2022).
# Target: T1, human FXR (Homo sapiens, UniProt Q96RI1)
# T1 construct: expressed in transfected cells; host or cells: HEK293 cells stably carrying a 5xGal4-response-element firefly luciferase reporter, transiently transfected with pcDNA3.1-Gal4-FXR
# T1 sequence (Q96RI1 262-486 limits assumed): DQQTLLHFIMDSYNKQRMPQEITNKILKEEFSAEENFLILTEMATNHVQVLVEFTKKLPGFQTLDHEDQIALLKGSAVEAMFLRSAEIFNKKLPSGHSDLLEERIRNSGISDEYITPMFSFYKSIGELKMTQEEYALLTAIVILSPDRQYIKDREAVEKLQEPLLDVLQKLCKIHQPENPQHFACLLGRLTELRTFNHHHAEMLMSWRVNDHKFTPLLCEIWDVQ
# Assay: transient human FXR/Gal4-luciferase reporter assay
# Type: cell-based
# Conditions: Gal4-hFXR fusion construct, luciferase reporter HEK293 cells; response relative to 8 μM GW-4064
# Method: The exemplified compounds of the present invention were tested in the transient human FXR/Gal4-luciferase reporter assay, and assay results were reported in Table 1 and Examples 1 to 3 together with other analytical data.
# A Gal4-hFXR fusion construct reporter system was used as the primary assay to characterize compound activity. A construct including 5 copies of the Gal4 promoter response element upstream of a firefly luciferase reporter cDNA was stably expressed in HEK293 cells. This reporter cell line was maintained in Dulbecco's Modified Eagle's medium (DMEM; Gibco) supplemented with 1% penicillin-streptomycin (P/S) solution, 500 μg/mL Zeocin and 10% charcoal/dextran-treated fetal bovine serum (cs-FBS) at 37° C. in a humidified 5% CO2 atmosphere. Another plasmid was constructed in which the human cytomegalovirus promoter in the pcDNA3.1 vector directs the expression of the cDNA encoding a fusion protein comprised of the DNA binding domain from the Gal4 transcription factor fused to the ligand binding domain from human FXR.
# The day prior to transfection, the reporter cells in culture are detached from the plate with trypsin and plated into a T75 flask at a sufficient density to achieve approximately 90% confluence the next morning. The transfection reagents are prepared by separately diluting 25 μg of the pcDNA3.1-Gal4-FXR plasmid into 1.87 mL of Opti-MEM (Thermo-Fisher), and 40 μL of Lipofectamine 2000 (Thermo-Fisher) into 1.87 mL of Opti-MEM, and then adding the diluted DNA solution into the diluted Lipofectamine 2000 solution and incubating at room temperature for 15-20 minutes. The mixture is further diluted with 10 mL of a solution comprised of DMEM, 10% cs-FBS, and 1% P/S immediately prior to transferring to the cells. The maintenance culture media is aspirated from the cells and the final transfection mixture is added before the cells are incubated overnight at 37° C. in a humidified 5% CO2 atmosphere. This protocol can be scaled up, and the transiently transfected cells can be cryopreserved in an assay-ready format.
# For compound testing, 100 nL of the compounds (serial dilutions in DMSO) are dispensed with an Echo acoustic dispenser (Labcyte) into the wells of a Corning/Costar clear bottom 384-well white plate. The transfected cells are harvested, counted, and diluted such that 10-25,000 cells in 25 μL are plated into each well of the 384-well compound assay plate. The compound-treated cells are incubated overnight at 37° C. in a humidified 5% CO2 atmosphere. The next morning 25 μL of Steady-Glo (Promega) are added to each well of the plate, the mixture is incubated for 15 min. with shaking, and luminescence is measured on an Envision (Perkin Elmer) plate reader. Background counts from cells treated with DMSO alone are subtracted from all raw counts, and the corrected values are converted to a percentage of the control response attained with 8 μM GW-4064.
row,SMILES,EC50
1,"O=C(O)c1cc(OC2CCC2)c2cc(N3CC4(CC(/C=C/c5c(-c6cccnc6C(F)(F)F)noc5C5CC5)C4)C3)ccc2n1 [Example 3, (E)-4-Cyclobutoxy-6-(6-(2-(5-cyclopropyl-3-(2-(trifluoromethyl)pyridin-3-yl)isoxazol-4-yl)vinyl)-2-azaspiro[3.3]heptan-2-yl)quinoline-2-carboxylic acid]",86 nM

# Same assay, conditions: Gal4-hFXR fusion construct, luciferase reporter HEK293 cells; response relative to 8 μM GW-4064; unit inferred
row,SMILES,EC50
1,NC(=O)c1ncc(OCC2CC3(CC(/C=C/c4c(-c5ccccc5C(F)(F)F)noc4C4CC4)C3)C2)cc1OC1CC1 (stereo not drawn) [Example 64],667 nM
2,O=C(O)c1cc(OC2COC2)c2cc(N3CC4(CC(/C=C/c5c(-c6c(Cl)cncc6Cl)noc5C5CC5)C4)C3)ccc2n1 [Example 24],114 nM
3,NC(=O)c1ncc(OCC2CC3(CC(/C=C/c4c(-c5c(Cl)cncc5Cl)noc4C4CC4)C3)C2)cc1OC1CCC1 (stereo not drawn) [Example 65],153 nM
4,O=C(O)c1ncc(OCC2CC3(CC(/C=C/c4c(-c5c(Cl)cncc5Cl)noc4C4CC4)C3)C2)cc1OC1CCC1 (stereo not drawn) [Example 58],22 nM
5,O=C(O)c1cccc(OCC2CC3(CC(/C=C/c4c(-c5c(Cl)cncc5Cl)noc4C4CC4)C3)C2)c1 (stereo not drawn) [Example 47],40 nM
